Assay results published in patent US11878016B2, “Methods and products for treating subjects with autism spectrum disorders” (NEURIM PHARMACEUTICALS (1991) LTD., priority 2021, dated 2024).

System: C57BL/6J mice exposed in utero to VPA (and SAL control offspring)
Experiment: Three chamber test in the valproic acid (VPA) model of autism
Format: in vivo
Excerpt: Furthermore, rodents prenatally exposed to this drug display behavioral phenotypes characteristics of the human autism condition. This model might better represent the many cases of idiopathic autism which are of environmental/epigenetic origins than do transgenic models carrying mutations in single autism-associated genes. The VPA model is an environmentally triggered model with strong construct and clinical validity. The VPA-induced rodent model is an art-recognized and well-established and widely utilized animal model to test putative efficacy of pharmacological agents on behavioral and social elements in the autistic spectrum for humans.
C57BL/6J mice were obtained at 7-8 weeks of age and were mated, with pregnancy confirmed by the presence of a vaginal plug on embryonic day 0 (E0). On E12.5, pregnant females received a single intraperitoneal injection of sodium salt of valproic acid (VPA, 500 mg/kg) dissolved in saline (SAL). Control females received an equal volume of SAL only. Day of birth was recorded as PO (postnatal day zero). The offspring were weaned on P21 (postnatal day 21) and the male offspring were housed in groups of 4-5. Experiments were carried out on male offspring. The mice were housed in a temperature- and humidity-controlled environment with ad libitum access to food and water. Animals were maintained on a 12 hr light/dark schedule, with lights on at 8 A.M.
The male offspring of VPA-treated mice were divided into 4 groups (n=8-9 per group): VPA-Vehicle)+50 μg of ZnSO4, VPA-ticagrelor (0.3 mg/kg)+[…] of ZnSO4, VPA-ticagrelor (10 mg/kg)+50 μg of ZnSO4 and VPA-ticagrelor (30 mg/kg)+50 μg of ZnSO4. The male offspring of SAL-treated mice were divided into 2 groups (n=10 per group): SAL-Vehicle and SAL-ticagrelor (30 mg/kg)+50 μg of ZnSO4. From the sixth week to eight week of age, the mice received three once-weekly injections of either saline (50 μl/g ip) or ticagrelor (i.p.). Twenty-four hours after the last injection, the three chamber test was performed.
The three-chamber test assesses cognition in the form of general sociability and interest in social novelty in a rodent model of CNS disorders. This test measures the sociability, the propensity to spend time with another mouse, as compared to time spent alone in an identical but empty chamber.
The apparatus was an acrylic box (length: 62 cm, width: 41 cm, height: 30.5 cm) divided into three chambers. A 5 cm×5 cm opening was made on the partitions so that mice could freely explore the three chambers. Mouse was first placed into the centre chamber of the apparatus and allowed 5 min for habituation. Following the completion of the acclimatization period the test mouse was removed to a holding cage, and the bedding material was redistributed. Then a novel mouse enclosed in a tiny cage was placed in one lateral chamber (social area) and an empty tiny cage was placed in the other lateral chamber as a novel object (non-social area). Mouse was first placed into the centre chamber and allowed to freely explore the chambers for 10 min and the time spent in each of the three areas (social, centre, and non-social areas) was recorded.
Statistical Analyses: Statistical analyses for the data were performed using one-way or two-way RM ANOVA (SigmaStat 3.1). Post-hoc comparisons were performed with the Tukey HSD method. If data were not normally distributed, Kruskal-Wallis one way ANOVA on ranks followed by the Dunn's method was used. All data were represented as mean±SEM. Significant level was set at p<0.05.

[1] = SAL (control) offspring, ticagrelor 30 mg/kg i.p. + 50 μg ZnSO4, vs SAL-Vehicle, p>0.05

## CCCSc1nc(N[C@@H]2C[C@H]2c2ccc(F)c(F)c2)c2nnn([C@@H]3C[C@H](OCCO)[C@@H](O)[C@H]3O)c2n1 [ticagrelor, (1S,2S,3R,5S)-3-[7-[[(1R,2S)-2-(3,4-difluorophenyl)cyclopropyl]amino]-5-(propylthio)-3H-1,2,3-triazolo[4,5-d]pyrimidin-3-yl]-5-(2-hydroxyethoxy)-1,2-cyclopentanediol]
[1]
  time spent in non-social area: no significant difference
  time spent in social area: no significant difference
VPA offspring, ticagrelor 10 mg/kg i.p. + 50 μg ZnSO4, three once-weekly injections, test 24 h after the last, vs VPA-Vehicle, p<0.01
  time spent in social area: significant increase
VPA offspring, ticagrelor 10 mg/kg i.p. + 50 μg ZnSO4, vs VPA-Vehicle, p<0.01
  time spent in non-social area: significant decrease
VPA offspring, ticagrelor 30 mg/kg i.p. + 50 μg ZnSO4, three once-weekly injections, test 24 h after the last, vs VPA-Vehicle, p<0.001
  time spent in social area: significant increase
VPA offspring, ticagrelor 30 mg/kg i.p. + 50 μg ZnSO4, vs VPA-Vehicle, p<0.01
  time spent in non-social area: significant decrease
VPA offspring, ticagrelor 30 mg/kg i.p. + 50 μg ZnSO4, vs VPA-Vehicle, p<0.05
  time spent in centre area: significant decrease
Three once-weekly administrations of ticagrelor and zinc salt, C57BL/6J mice exposed in utero to VPA
  deficit in sociability: attenuated the deficit in sociability
